Data reported in patent publication US11506670B2, “Method of genome-wide direct identification of electrophile-sensing targets” (Cornell University, priority 2018, dated 2022).
Where a SMILES comes first, the peptide text is derived from it. The star is where a group is joined. Cbz = O=C(OCc1ccccc1)*

How the values were obtained:
[1] = Chemical stability of HNE(alkyne); format: physicochemical; conditions: air
Method: (iv) Isolate the pure product via flash chromatography using hexanes: Et20 (4:1 v/v) as eluent (Rf=0.5 in hexanes: Et2O 4:1). […] The purified material should be characterized promptly and during this time may be stored under Ar at room temperature. For long-term storage, HNE(alkyne) should be stored as one-shot aliquots in DMSO at −80° C. and must be used immediately once thawed.

[2] = target: T1, PTEN (Homo sapiens, UniProt P60484); assay: InPAkt FRET biosensor assay of PIP3 after PTEN-targeted T-REX; format: cell-based
T1 construct: host or cells: HEK-293
Method: (ii) Transfect each plate with 1000 ng of Halo-PTEN and 1000 ng of InPAkt reporter plasmid. Transfect with TransIT-2020 following the manufacturer's protocol.
(iv) Treatment of cells with T-REX™ delivery photocaged precursor, photo-uncaging and cell fixing. Treat the cells with photocaged precursor as described in Section 2, Step 39A. The amounts of reagents used should be scaled up for 4×35 mm adherent culture dish.
(v) Irradiate the cells with UV light only for 3 min. After shining light on the sample. Incubate the plates at 37° C. for 10 hours. Longer irradiation time will result in photobleaching of the FRET reporter proteins.
(vi) Imaging and data analysis. […] Blue laser (408 nm) is used for excitation. Record the signals in cyan channel (463-498 nm) and yellow channel (525-620 nm).
(vii) Analyse the images using ImageJ software (NIH). To do this, determine the average cyan and yellow fluorescence intensity for each cell by drawing a free hand circle around the image. Repeat this for each condition such that 150-200 cells were analyzed each time from multiple different frames. Calculate the ratio of mean yellow to mean cyan fluorescence intensity for each condition, then plot these values and analyse the results using prism. To get reliable results, it is important to collect images from at least 150 individual cells per condition.

[3] = system: γ-H2AX; assay: T-REX in zebrafish embryos, whole-mount γ-H2AX immunofluorescence; format: in vivo, zebrafish (Danio rerio); conditions: 3 h post light exposure
Method: (§1) Fertilized eggs at the 1-2 cell stage from casper zebrafish were injected with mRNA (1.6 mg/ml) into the yolk sack. Immediately after injection, embryos were pooled, and separated into two petri dishes (10 cm) filled with 30 mL 10% Hank's salt solution with methylene blue and penicillin (100 U/mL)/streptomycin (100 μg/ml). To one set was added the HaloTag-targetable photocaged precursor to HNE (Ht-PreHNE, hereafter) (<15 μM) and the other DMSO in the dark. Embryos were maintained at 28° C. in the dark for 28 h then they were washed in 10% Hank's solution with no methylene blue/antibiotic (3 times for 30 min each). Embryos were moved to 6-well plates. Half of the embryos (Ht-preHNE-treated or -untreated) were irradiated with UV light (5 min), and the other half of each set was not irradiated. Embryos were left for 8 h at which point they were euthanized, washed with cold 1×DPBS and dechorionated (and deyolked if protein analysis was to be undertaken).
DDR preconditioning occurs in zebrafish embryos. […] Subsequently, the fish were fixed and γ-H2AX levels were measured using whole-mount immunofluorescence.

[4] = system: Ube2V2 ubiquitination and cellular Ub pools; assay: Ubiquitination analysis by IP, K63-TUBE pulldown and western blot in HEK293T cells; format: cell-based, human; conditions: for amount of ubiquitinated-Ube2V2 formed upon targeted-HNEylation: proteasome inhibitor treatment with T-REX
Method: Cells were lysed in 1×RIPA buffer containing in final concentrations 1× Protease inhibitor, 1 mM sodium orthovanadate and 1 mM PMSF, by rapid freeze-thaw (×3). Cell debris was removed and the supernatant was collected after centrifugation at 18,000×g for 20 min at 4° C. Protein concentration was determined using Bradford assay. 30-50 μg of total lysates were subjected to SDS-PAGE and the gel was transferred onto a PVDF membrane at 100 V for 1 h at 4° C. or at 40 V overnight at 4° C. Membrane was blocked with 10% milk and probed with various antibodies at the indicated dilutions (Table 4, above).
HEK 293T cells were seeded in 2×60 cm^2 plates. After the cells reached 60% confluence (˜18-24 h), the old media was replaced with 8 mL of fresh complete media. Cells were transfected with 7.5 μg of the designated Halo clone and 30 μL PEI (1 mg/mL) in 600 μL in Opti-MEM media for 24-36 h after which the cells were treated with 25 μM Ht-PreHNE for 2.5 h. Rinsing and light shining protocol were as described above. Cells were harvested, pooled, washed twice with chilled 1×DPBS and flash frozen. Cell lysis was performed in 100-200 μL per 1.5×10^6 cells of either: lysis buffer [containing in final concentrations 50 mM HEPES (pH 7.6), 150 mM NaCl, 1% Nonidet P-40 and 1× Roche cOmplete, mini, EDTA-free protease inhibitor cocktail] for Flag pull down; or RIPA buffer [containing in final concentrations 50 mM HEPES (pH 7.6), 150 mM NaCl, 1% Nonidet P-40, 0.1% SDS, 0.25% sodium deoxycholate, and 1× Roche cOmplete, mini, EDTA-free protease inhibitor cocktail] for HA pull down, followed by rapid freeze-thaw cycles (×3). Lysate was clarified by centrifugation at 18,000×g for 10 min at 4° C. Total protein concentration was determined using Bradford assay with BSA as standard. The lysate was subsequently diluted to 2 mg/mL with binding buffer containing in final concentrations 50 mM HEPES (pH 7.6), 150 mM NaCl, 1× Roche cOmplete, mini, EDTA-free protease inhibitor cocktail, and 0.1% Tween-20. This diluted lysate was subjected to either 50-100 μL bed volume of ANTI-FLAG® M2 affinity gel (A2220, Sigma) or monoclonal anti-HA-agarose (clone HA-7, A2095, Sigma) that had been pre-equilibrated with the binding buffer above. The sample was incubated with beads for 2-3 h at 4° C. by end-over-end rotation after which time the supernatant was removed post-centrifugation at 1000×g (anti-FLAG pull down) or 5000×g (anti-HA pull down) for 3 min. The beads were washed three times at 4° C. with 500 μL wash buffer containing in final concentrations 50 mM HEPES (pH 7.6), 150 mM NaCl, 1× Roche cOmplete, mini, EDTA-free protease inhibitor cocktail, and 0.1% Tween-20, using end-over-end rotation over 10 min during each wash. The bound protein was eluted by either incubating with 0.15 mg/mL 3× flag peptide for 2 h at 4° C. (anti-Flag pull down) or by boiling the beads at 98° C. for 10 min with 30 μL of 3× Laemmeli dye containing 6% βME (anti-HA pull down). The sample was subjected to SDS-PAGE and transferred to a PVDF membrane for western blot analysis described above.
Cells were grown and transfected as described above. After T-REX™ delivery, cells were harvested and lysed in 100-200 μL (˜1.5×10^6 cells) of lysis buffer [containing in final concentrations 50 mM HEPES (pH 7.6), 300 nM Biotin K63-TUBE, 150 mM NaCl, 5 mM EDTA, 3 mM 1,10-phenanthroline, 5 mM NEM, 20 μM PR-619, 1% Nonidet P-40 and 1× Roche cOmplete, mini, EDTA-free protease inhibitor cocktail] according to manufactures' manual (Biotin K63 TUBE, Lifesensors). Lysate was clarified by centrifugation at 18,000×g for 10 min at 4° C. Total protein concentration was determined using Bradford assay using BSA as standard. […]

[5] = system: zebrafish embryos; assay: Zebrafish embryo morphology and survival, stereomicroscope; format: in vivo, zebrafish (Danio rerio)
Source text: Fish were then dechorionated, deyolked, lysed and HNEylated proteins were captured by Click coupling with biotin-azide and subsequent streptavidin pulldown (see workflow in FIG. 4A, Clicking with biotin-azide). HNEylation of Ube2V2 in fish also led to polyubiquitination of Ube2V2, indicating mechanistic conservation between fish and humans, and functional relevance of this electrophile regulatory pathway in vivo. Also see FIG. 14C. […] After 36-h fish were dechorionated and imaged using a stereomicroscope. Scale bars, 545 μm.
as §1, with “Embryos were left for 8 h at which point they were euthanized, washed with cold 1×DPBS and dechorionated (and deyolked if protein analysis was to be undertaken).” left out

[6] = system: γ-H2AX; assay: γ-H2AX immunofluorescence in HEK293T cells; format: cell-based, human
Method: Cells were grown to 70% confluence in 35 mm glass-bottomed dishes and transfected with HaloTagged plasmids. T-REX™ delivery was performed as mentioned above. […] The fixative was aspirated and the cells washed three times with 1×DPBS with 5-min incubation at room temperature. Blocking and permeabilization was performed in one-step by incubation at 37° C. for 1 h in 1×DPBS containing 3% BSA and 0.2% Triton X-100. Cells were subsequently incubated with primary antibody (1:300, Table 4) in incubation buffer (1% BSA, 0.02% Triton X-100 in 1×DPBS) for 2 h at room temperature. Cells were rinsed 3 times with 1×DPBS with 5 min incubation for each wash and subsequently incubated in dark for 1 h at room temperature with corresponding second antibody (1:1000, Table 4) in incubation buffer. Cells were rinsed 3 times with 1×DPBS with 5 min incubation for each rinse. DAPI (Sigma) was freshly prepared in 1×DPBS from 2 mg/mL wt./v stock solution in water and added to the wells at the final concentration of 0.2 μg/mL. The samples were incubated in dark for 1 min and washed once with 1×DPBS and stored at 4° C. in dark till images were taken using a Zeiss LSM 710 meta confocal fluorescence microscope. Image analysis was performed using Image-J (NIH).

[7] = system: Ube2N; assay: Lentiviral shRNA knockdown of Ube2N, western blot; format: cell-based, human
Method: HEK293T packaging cells were seeded and grown overnight in antibiotic free media in 6 well plates. At 80% confluence, each well was transfected with packaging plasmid (pCMV-R8.74psPAX2, 500 ng), envelope plasmid (pCMV-VSV-G, 50 ng) and pLKO vector (500 ng) using TransIT.LT1 as per the manufacturer's protocol. After 18 h, media were removed and replaced with 20% serum containing media. After 24 h, media containing viruses were collected, spun down and passed through a 0.6 micron filter and stored at −80° C. or used directly.
Cells in log phase were treated with 0.6 ml of virus supernatant (from above) in 8 μg/ml polybrene in a total of 6 ml of media in a 6-well plate. After 24 h, media were removed and replaced with media containing 2 μg/ml puromycin (which was completely toxic to all lines used in this study). Cells were cultured until the plate was confluent, then cells were split and moved to a 10 cm dish in 2 μg/ml puromycin containing media and grown again until reaching confluence. At this, the line was considered to be “selected”, and target gene expression was analyzed by western blot and compared to shRNA controls. […]
Cells were lysed in 1×RIPA buffer containing in final concentrations 1× Protease inhibitor, 1 mM sodium orthovanadate and 1 mM PMSF, by rapid freeze-thaw (×3). […] Protein concentration was determined using Bradford assay. […]

T1 sequence (P60484 whole entry): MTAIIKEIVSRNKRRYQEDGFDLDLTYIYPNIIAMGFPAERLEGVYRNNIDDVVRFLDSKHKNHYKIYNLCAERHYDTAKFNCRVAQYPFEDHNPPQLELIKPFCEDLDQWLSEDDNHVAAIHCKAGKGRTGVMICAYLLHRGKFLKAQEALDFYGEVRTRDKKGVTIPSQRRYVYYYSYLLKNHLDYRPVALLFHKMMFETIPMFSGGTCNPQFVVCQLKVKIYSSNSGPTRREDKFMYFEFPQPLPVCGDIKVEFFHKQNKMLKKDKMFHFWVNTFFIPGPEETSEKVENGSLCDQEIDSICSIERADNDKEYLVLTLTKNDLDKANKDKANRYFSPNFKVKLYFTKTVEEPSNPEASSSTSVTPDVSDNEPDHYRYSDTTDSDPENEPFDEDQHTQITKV

For C#CCCCC(O)C=CC=O (stereo not drawn) [HNE(alkyne), 4-hydroxynonenal alkyne], the stability [1] was “highly unstable to air-oxidation and polymerization”.

In the case of C#CCCCC(O)/C=C/COc1c(CC(=O)NCCOCCOCCCCCCCl)ccc2c1C(=O)c1ccccc1C2=O (stereo not drawn) [Ht-PreHNE], the FRET signal ([2]; T-REX on Halo-PTEN vs light alone) is reported as “selectively enhances FRET signal”, the “YFP:CFP emission ratio” value ([2]; precursor treatment alone, no light) is reported as “did not perturb the emission ratio significantly” and the “γ-H2AX levels in zebrafish embryos” value [3] is reported as “regulates γ-H2AX levels in zebrafish”.

In the case of CC(C)C[C@@H](C=O)NC(=O)[C@H](CC(C)C)NC(=O)[C@H](CC(C)C)NC(=O)OCc1ccccc1 [MG132] (Cbz-Leu-Leu-Leu-aldehyde), the “pan cellular poly-Ub-pools” value ([4]; HEK293T) is reported as “elevated pan-Ub-pools” and the “amount of ubiquitinated-Ube2V2 formed upon targeted-HNEylation” value [4] is reported as “had no effect on the amount of ubiquitinated-Ube2V2”.

With CO[C@@]12[C@H](COC(N)=O)C3=C(C(=O)C(C)=C(N)C3=O)N1C[C@@H]1N[C@@H]12 [Mitomycin-C] the “embryo deformity / death” value [5] was “severely deformed or died during treatment”, the “γ-H2AX in Ube2V2-C69S-expressing and Ube2N-deficient cells” value [6] was “still upregulated γ-H2AX” and the γ-H2AX upregulation ([6]; positive control) was 3-4 fold. The “γ-H2AX levels in zebrafish embryos” value [3] was “high level of γ-H2AX-expression relative to untreated fish”.

With N#CSc1cc(SC#N)c(N)nc1N [PR-619] the “K63-linked total cellular Ub pools” value ([4]; HEK293T) was “promoted elevation of K63-ubiquitination” and the “ubiquitination of Ube2V2 wt vs C69S” value ([4]; HEK293T) was “promote ubiquitination of Ube2V2(C69S) as efficiently as wt-Ube2V2”.

For CC(C)C[C@H](NC(=O)[C@H](Cc1ccccc1)NC(=O)c1cnccn1)B(O)O [bortezomib], the “pan cellular poly-Ub-pools” value ([4]; HEK293T) was “elevated pan-Ub-pools” and the “amount of ubiquitinated-Ube2V2 formed upon targeted-HNEylation” value [4] was “had no effect on the amount of ubiquitinated-Ube2V2”.

In the case of “#18: shRNA targeting Ube2N in pLKO1 vector (SEQ ID NO: 65) (CCGGGCTGAGGCATTTGTGAGTCTTCTCGAGAAGACTCACAAATGCCTCAGCTTTTT)”, the Ube2N knockdown strength [7] is reported as “weaker knockdown”.
